Measurements taken from article PMC5382548 (Scientific Reports, 2015).
Values joined by “and” are separate entries in the source; they are usually repeats but may differ in a detail not shown here. Equal entries are not always repeated.

Legend:
[1] = system: double-stranded DNA (26ds); experiment: Spectrofluorimetric titration with 26ds DNA; type: binding; conditions: for Apparent association constant Ka (26ds): ligand 1 μM, K-cacodylate pH 7.4, 60 mM K+, 25°C; for Hill constant h (26ds): one-site saturation binding Hill slope model
Procedure: To characterize the binding of IQc to DNA structures, spectrofluorimetric titration assays were performed with the non-substituted (2a), mono-alkyldiamine (2d) and di-alkyldiamine (3e) derivatives using un-labelled KRAS21R G4 and 26ds-DNA. […] Their fluorescence intensity was proportional to concentration up to 10 μM. […] The fluorescence titration data (Figure 4) was fitted to the Scatchard model[25] (Figure 4, insets). […] Scatchard plots of 2d and 3e (Figure 4b–c, insets) are all concave-down nonlinear curves, which may denote different positive cooperative binding sites in G4, with more than one equivalent and non-independent binding sites. […] Therefore, association constants for 2d and 3e were obtained from the one-site saturation binding Hill slope model (Figure 4b–c). These are apparent binding constants, i.e. they are macroscopic Ka which reflect the total binding.
Figure 4 Fluorescence data of (a) 2a, (b) 2d, and (c) 3e (1 μM) in K-cacodylate buffer (pH 7.4, containing 60 mM K^+) at 25°C, titrated with KRAS21R and HT21 G4s, and 26ds, fitted to the saturation binding equations and Scatchard model (insets).
Fluorescence data were collected with a λex of 290 nm and a λem around 475 nm for 2d and 3e, and a λex of 275 nm and a λem around 460 for 2a. Test compounds were prepared as 1 mM in HPLC-grade water (10% DMSO) stock solutions. The rest of the dilutions were performed using K-cacodylate buffer (pH = 7.4, containing 60 mM K^+). The G4 single-strand oligonucleotide sequences were initially diluted from the storage solution (100 μM) with K-cacodylate, to a stock solution at 25 μM. The titration data were obtained by adding aliquots of previously annealed G4 (heating to 95°C for 10 min, followed by slow cooling to RT) to a solution of the indolo[3,2-c]quinoline ligand (1 μM) in K-cacocylate buffer at 25°C (additional details in Supplementary Information).
Figure S7. Fluorescence titrations of 1 μM indolo[3,2-c]quinoline 2d (1µM) with KRAS21R G4 and 26ds DNA in K-cacodylate buffer pH 7.4, containing 60 mM K+ at 25 °C.
Concentration of DNA increase from the top to the bottom (grey lines) Excitation […]
Figure S8. Fluorescence titrations of 1 μM indolo[3,2-c]quinoline 3e (1µM) with KRAS21R […]
The titration data obtained were used to construct Scatchard plots with the concentration of bound and free ligand (Cb and Cf, respectively). […]
number of moles of ligand bound to 1 mol of G4 (r = Cb/CDNA) were calculated.
Saturation binding isotherms were represented as Scatchard plots, by plotting r/Cf versus r and evaluated according to the model of McGhee and von Hippel. Dissociation constants were determined by fitting the titration experimental data to one-site saturation binding equation or to one-site saturation binding to the Hill slope equation supplied with the GraphPad PRISM software (GraphPad, Version 5.00, San Diego, CA).
Association constants (Ka) were calculated from dissociation constants (Kd). Scatchard lines represented in the Scatchard plots were calculated from the data fitting to the binding equations (x = 0, y = Fmax/Kd; x = Fmax , y = 0; slope = -Ka). […]

[2] = system: T-loop, a 26-mer hairpin double-stranded DNA; experiment: FRET melting assay, T-loop hairpin ds-DNA; type: binding; conditions: ds-DNA 0.2 μM, ligand 1 μM, K-cacodylate buffer pH 7.4, 60 mM K+
Procedure: Fluorescence resonance energy transfer (FRET) studies with DNA sequences labelled at the 5′ and 3′ ends, were conducted to evaluate the G4 DNA stabilizing properties of IQcs (at 0.1 to 5 μM ligand concentrations). The G4-forming sequence KRAS21R[11], together with T-loop, a 26-mer hairpin double-stranded DNA (ds-DNA) sequence were used in the first screening assay. Reproducible IQc dose-dependent melting curves (Sup. Inf.; Figure S3) and stabilization temperature (ΔTm) values were obtained (Figure 2 and Table S5).
Figure 2 FRET stabilization temperatures (ΔTm) of KRAS21R G4 and hairpin ds-DNA (T-loop) at 0.2 μM, in K-cacodylate buffer (pH = 7.4, 60 mM K^+), stabilized by IQc derivatives and TMPyP4 at 1 μM. ^a) SD ≤ 0.2°C. TEXT PRINTED IN THE PICTURE: TMPyP4: ΔTm / °C ^a) (T-Loop): 16.0; ΔTm / °C ^a) (KRAS21R): 25.1 | 3e: ΔTm / °C ^a) (T-Loop): 6.5; ΔTm / °C ^a) (KRAS21R): 22.0 | 3d: ΔTm / °C ^a) (T-Loop): 5.6; ΔTm / °C ^a) (KRAS21R): 19.9 | 2d: ΔTm / °C ^a) (T-Loop): 6.1; ΔTm / °C ^a) (KRAS21R): 15.1 | 2a: ΔTm / °C ^a) (T-Loop): 1.5; ΔTm / °C ^a) (KRAS21R): 4.4 […]
Oligonucleotide sequences were purchased from Eurofins MWG Synthesis GmbH, Germany or STAB VIDA Genomics Lab, Caparica, Lisbon, Portugal. The labelled oligonucleotides used in the FRET assays had attached the donor fluorophore FAM (6-carboxyfluorescein) and the acceptor fluorophore TAMRA (6-carboxytetramethylrhodamine): KRAS21R: 5′-FAM-[…]-TAMRA-3′; KRAS32R: 5′-FAM-[…]-TAMRA-3′; UTR-1: 5′-FAM-GCGGCGGCGGAGG-TAMRA-3′; UTR-2: 5′-FAM-[…]-TAMRA-3; T-Loop:5′-FAM-[…]-TAMRA-3′; F21T: 5′-FAM-[…]-TAMRA-3′. Non-labelled oligonucleotides were used in FRET competition assays and in the spectroscopic studies: ds26: - d(5′-CAATCGGATCGAATT CGATCCGATTG-3′); KRAS21R: 5′-[…]-3′; HT21: 5′-[…]-3′. Each oligonucleotide was initially diluted to a storage solution at 100 μM in nuclease-free water (not DEPC-treated), purchased from Ambion Applied Biosystems UK.
The ability of indolo[3,2-c]quinolines to stabilize DNA sequences was investigated using a Fluorescence Resonance Energy Transfer (FRET) assay as reported elsewhere.
Figure S3 (cont.)| Concentration-dependent (0.1, 0.5, 1, 2, 3, 4 and 5 µM) FRET melting profiles of G4 structures and T-loop DNA with indolo[3,2-c]quinoline derivatives 1a, 2a-g and 3d-j in K-cacodylate buffer (pH 7.4, 60 mM K+). […]
Table S5 | FRET stabilization temperatures (ΔTm) of G4s sequences and ds-DNA (0.2 µM) stabilized by […]

SMILES: Cn1cc2c3ccccc3nc-2c2cc(Br)ccc21 [2a, 2-bromo-5-methyl-indolo[3,2-c]quinoline]
- Apparent association constant Ka (26ds) [1]: 0.8 × 10^6 M^−1 and 0.8/-- × 10^6 M^−1
- FRET stabilization temperature ΔTm (T-loop) [2]: 1.5 °C

SMILES: CCN(CC)CCCNc1ccc2c(c1)c1[nH]c3ccccc3c1c[n+]2C [2d]
- Apparent association constant Ka (26ds) [1]: 2.8e+06 M⁻¹
- Hill constant h (26ds) [1]: 1.5
- FRET stabilization temperature ΔTm (T-loop) [2]: 6.1 °C

SMILES: CCN(CC)CCCNc1ccc2[nH]c3c(c[n+](C)c4ccc(NCCCN(CC)CC)cc34)c2c1.[Cl-] [3d]
- FRET stabilization temperature ΔTm (T-loop) [2]: 5.6 °C

SMILES: CCN(CC)CCCNc1ccc2c(c1)[nH]c1c2c[n+](C)c2ccc(NCCCN(CC)CC)cc12.[Cl-] [3e]
- Apparent association constant Ka (26ds) [1]: 3.2e+06 M⁻¹
- Hill constant h (26ds) [1]: 2.5
- FRET stabilization temperature ΔTm (T-loop) [2]: 6.5 °C

SMILES: C[n+]1ccc(-c2c3nc(c(-c4cc[n+](C)cc4)c4ccc([nH]4)c(-c4cc[n+](C)cc4)c4ccc([nH]4)c(-c4cc[n+](C)cc4)c4nc2C=C4)C=C3)cc1 [TMPyP4, reference compound]
- FRET stabilization temperature ΔTm (T-loop) [2]: 16.0 °C
